Data set [1] addresses T1, human 5HT1A receptors (Homo sapiens, UniProt P08908).
T1 construct: expressed in transfected cells; host or cells: CHO cells
T1 sequence (P08908 1-422): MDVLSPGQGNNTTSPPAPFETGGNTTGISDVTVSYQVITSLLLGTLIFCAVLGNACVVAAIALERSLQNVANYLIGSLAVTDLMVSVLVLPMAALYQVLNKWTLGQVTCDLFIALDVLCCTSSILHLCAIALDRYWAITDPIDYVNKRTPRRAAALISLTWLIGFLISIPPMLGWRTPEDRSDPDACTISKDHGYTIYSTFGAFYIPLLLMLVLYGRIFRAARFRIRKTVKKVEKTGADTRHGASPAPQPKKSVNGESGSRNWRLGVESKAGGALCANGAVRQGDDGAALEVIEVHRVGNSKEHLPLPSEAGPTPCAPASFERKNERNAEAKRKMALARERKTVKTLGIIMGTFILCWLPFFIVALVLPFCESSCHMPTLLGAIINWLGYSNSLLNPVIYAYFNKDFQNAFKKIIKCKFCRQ
The data set is described as follows: [3H] 8-OH-DPAT displacement from 5HT1A receptor in stably transfected CHO cells. The class given is binding. The conditions noted are these: CHO cells with human 5HT1A; for Ki: read-out: 5HT1A Receptor Affinity Ki. The text has this: High affinity for the serotonin 5HT1A receptor was established by testing the claimed compound's ability to displace [^3H] 8-OH-DPAT (dipropylamino-tetralin) from the 5HT1A serotonin receptor following a modification of the procedure of Hall et al., J. Neurochem. 44, 1685 (1985) which utilizes CHO cells stably transfected with human 5HT1A receptors.

The target in data set [2] is T2, serotonin transporter (Rattus norvegicus, UniProt P31652).
T2 construct: displace ^3H-paroxetine from male rat frontal cortical membranes; from tissue; host or cells: male rat frontal cortical membranes
The data set is described as follows: 3H-paroxetine displacement from rat frontal cortical membranes (serotonin transporter affinity). The class given is binding. To be noted: 3H-paroxetine, male rat frontal cortical membranes; for Ki: read-out: 5-HT Transporter Affinity Ki.

In data set [3] the target is T3, cloned human 5HT1A receptors (Homo sapiens, UniProt P08908).
T3 construct: expressed in transfected cells
T3 sequence (P08908 1-422): T1 sequence (P08908 1-422)
Description: 35S-GTPγS binding assay, 5HT1A antagonist activity. Format: biochemical. The conditions noted are these: for 5HT1A Function Imax: maximum inhibitory effect, vs 8-OH-DPAT, unit assumed; for IC50: reversal of 8-OH-DPAT (antagonist), read-out: 5HT1A Function IC50. Here is the method: Antagonist activity at 5HT1A receptors was established by using a ^35S-GTPγS binding assay similar to that used by Lazareno and Birdsall (Br. J. Pharmacol. 109:1120, 1993), in which the test compound's ability to affect the binding of ^35S-GTPγS to membranes containing cloned human 5HT1A receptors was determined. Agonists produce an increase in binding whereas antagonists produce no increase but rather reverse the effects of the standard agonist 8-OH-DPAT. The test compound's maximum inhibitory effect is represented as the Imax, while its potency is defined by the IC50.

T2 sequence (P31652 whole entry): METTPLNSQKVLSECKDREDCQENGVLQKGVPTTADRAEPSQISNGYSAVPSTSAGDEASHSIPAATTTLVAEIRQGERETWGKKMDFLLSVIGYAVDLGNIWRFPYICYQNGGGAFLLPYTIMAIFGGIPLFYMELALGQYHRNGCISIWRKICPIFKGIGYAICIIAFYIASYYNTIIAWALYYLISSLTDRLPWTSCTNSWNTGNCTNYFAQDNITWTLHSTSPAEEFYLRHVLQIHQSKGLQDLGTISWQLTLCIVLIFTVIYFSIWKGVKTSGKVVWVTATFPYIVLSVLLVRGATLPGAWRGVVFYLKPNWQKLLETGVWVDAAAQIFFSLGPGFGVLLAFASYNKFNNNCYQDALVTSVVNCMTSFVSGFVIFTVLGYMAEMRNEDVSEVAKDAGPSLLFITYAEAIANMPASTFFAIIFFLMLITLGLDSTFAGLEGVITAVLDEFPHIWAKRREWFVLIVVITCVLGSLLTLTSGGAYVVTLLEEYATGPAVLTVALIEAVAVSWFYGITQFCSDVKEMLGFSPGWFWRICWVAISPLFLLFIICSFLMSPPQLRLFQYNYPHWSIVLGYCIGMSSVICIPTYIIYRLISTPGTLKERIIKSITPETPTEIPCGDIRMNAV

One may read the Ki as a dissociation constant, usually derived from enzyme kinetics or from competition with a known ligand. As usually defined, the IC50 is the concentration that gives 50% inhibition. What is called melting point is the temperature of the solid-liquid transition. In turn, `Cc1ccc2c3c(ccc2n1)OC[C@H](CN1CCN(c2cccc(Cl)c2)CC1)O3` [Example 1, (2S)-2-{[4-(3-chlorophenyl)piperazin-1-yl]methyl}-8-methyl-2,3-dihydro[1,4]dioxino[2,3-f]quinoline] displayed a melting point of 110 to 112 °C. For the same compound, the inhibition constant (Ki) in data set [1] was 15.9 nM. Further, the Ki in data set [2] worked out at 15.7 nM. Besides, in data set [3], the 5HT1A Function Imax came to 100% and the IC50 came to 4560 nM.

`COc1ccccc1N1CCN(C[C@H]2COc3ccc4nc(C)ccc4c3O2)CC1` [Example 4, (2S)-2-{[4-(2-methoxyphenyl)piperazin-1-yl]methyl}-8-methyl-2,3-dihydro[1,4]dioxino[2,3-f]quinoline] gave a melting point of 44 to 47 °C. Further, in data set [1], the “5HT1A Receptor Affinity, % @ 1 μM” value is given as 95% @ 1 μM. Besides, the “5-HT Transporter Affinity, % @ 1 μM” value in data set [2] is reported as 34% @ 1 μM. Further, in data set [3], the 5HT1A Function Imax is 87% and the concentration for half-maximal inhibition (IC50) was found to be 994 nM.

For `COc1cccc(N2CCN(C[C@H]3COc4ccc5nc(C)ccc5c4O3)CC2)c1` [Example 5, (2S)-2-{[4-(3-methoxyphenyl)piperazin-1-yl]methyl}-8-methyl-2,3-dihydro[1,4]dioxino[2,3-f]quinoline], the melting point fell in the range of 90 to 91 °C. Besides, in data set [1], the “5HT1A Receptor Affinity, % @ 1 μM” value was 80% @ 1 μM. The Ki in data set [2] came to 35.5 nM. For the same compound, in data set [3], the 5HT1A Function Imax turned out to be 84% and the IC50 turned out to be 1720 nM.

As for `COc1ccc(N2CCN(C[C@H]3COc4ccc5nc(C)ccc5c4O3)CC2)cc1` [Example 6, (2S)-2-{[4-(4-methoxyphenyl)piperazin-1-yl]methyl}-8-methyl-2,3-dihydro[1,4]dioxino[2,3-f]quinoline], the melting point lay within 164 to 165 °C. In data set [1], the “5HT1A Receptor Affinity, % @ 1 μM” value worked out at 81% A1 μM. In data set [2], the “5-HT Transporter Affinity, % @ 1 μM” value turned out to be 0% @ 1 μM. Further, in data set [3], the 5HT1A Function Imax is 37% and the IC50 turned out to be 3940 nM.

`Cc1ccc2c3c(ccc2n1)OC[C@H](CN1CCN(c2cccc(C(F)(F)F)c2)CC1)O3` [Example 8, (2S)-8-methyl-2-[4-(3-trifluoromethyl-phenyl)piperazin-1-ylmethyl]-2,3-dihydro[1,4]dioxine[2,3-f]quinoline] registered a melting point of 123 to 124 °C. The Ki in data set [1] was determined as 31.4 nM. Besides, the Ki in data set [2] came out at 21.6 nM. In data set [3], the 5HT1A Function Imax was determined as 100% and the half-maximal inhibitory concentration (IC50) was 3110 nM.

`Cc1ccc2c3c(ccc2n1)OC[C@H](CN1CCN(c2cccc(C)c2C)CC1)O3` [Example 10, (2S)-2-{[4-(2,3-dimethylphenyl)piperazin-1-yl]methyl}-8-methyl-2,3-dihydro[1,4]dioxino[2,3-f]quinoline] came in with a melting point of 112 to 113 °C. In addition, the Ki in data set [1] came out at 82.5 nM. Further, in data set [2], the Ki was determined as 88.5 nM. Besides, in data set [3], the 5HT1A Function Imax turned out to be 98% and the IC50 was 403 nM.

`Cc1ccc2c3c(ccc2n1)OC[C@H](CN1CCN(c2ccc(C)c(C)c2)CC1)O3` [Example 11, (2S)-2-{[4-(3,4-dimethylphenyl)piperazin-1-yl]methyl}-8-methyl-2,3-dihydro[1,4]dioxino[2,3-f]quinoline] registered a melting point of 118 to 120 °C. Also, the inhibition constant Ki in data set [1] is 18.2 nM. The inhibition constant Ki in data set [2] is 85.5 nM. Also, in data set [3], the 5HT1A Function Imax amounted to 84% and the IC50 came out at 345 nM.

With `COc1cccc2c(N3CCN(C[C@H]4COc5ccc6nc(C)ccc6c5O4)CC3)coc12` [Example 16, (2S)-2-{[4-(7-methoxy-1-benzofuran-3-yl)-1-piperazinyl]methyl}-8-methyl-2,3-dihydro[1,4]dioxino[2,3-f]quinoline], the melting point came to 56 °C. Further, the inhibitory constant (Ki) in data set [1] came to 28.5 nM. Besides, in data set [2], the Ki amounted to 266 nM.

Regarding `Cc1ccc2c3c(ccc2n1)OC[C@H](CN1CCN(c2ccc4ccccc4n2)C[C@@H]1C)O3` [Example 19, (2S)-8-methyl-2-{[(2S)-2-methyl-4-quinolin-2-ylpiperazin-1-yl]methyl}-2,3-dihydro[1,4]dioxino[2,3-f]quinoline], the melting point was 141 to 144 °C. The Ki in data set [1] turned out to be 167 nM. In data set [2], the inhibitory constant (Ki) was 123 nM. In data set [3], the 5HT1A Function Imax amounted to 90% and the IC50 was found to be 3000 nM.

Take `Cc1ccc2c3c(ccc2n1)OC[C@H](CN1CCN(c2ccc4ccccc4n2)C[C@H]1C)O3` [Example 21, (2S)-8-methyl-2-{[(2R)-2-methyl-4-quinolin-2-ylpiperazin-1-yl]methyl}-2,3-dihydro[1,4]dioxino[2,3-f]quinoline]: the melting point was 78 to 82 °C. In addition, the inhibition constant (Ki) in data set [1] turned out to be 5.53 nM. The inhibition constant (Ki) in data set [2] was determined as 32.8 nM. Besides, in data set [3], the 5HT1A Function Imax was 83.5% and the IC50 was determined as 867 nM.

Take `Cc1ccc2c3c(ccc2n1)OC[C@H](CN1CCN(c2ccc4cc(Br)ccc4n2)CC1)O3` [Example 27, (2S)-2-{[4-(6-Bromoquinolin-2-yl)piperazin-1-yl]methyl}-8-methyl-2,3-dihydro[1,4]dioxino[2,3-f]quinoline]: the melting point was 153 to 154 °C. The inhibition constant Ki in data set [1] stood at 17.1 nM. The Ki in data set [2] was 101 nM. In data set [3], the 5HT1A Function Imax was 82% and the IC50 came out at 2410 nM.

Compound `COc1ccc2nc(N3CCN(C[C@H]4COc5ccc6nc(C)ccc6c5O4)CC3)ccc2c1` [Example 30, (2S)-2-{[4-(6-methoxyquinolin-2-yl)piperazin-1-yl]methyl]-8-methyl-2,3-dihydro[1,4]dioxino[2,3-f]quinoline] gave a melting point of 158 to 160 °C.

For the compound `Cc1ccc2c3c(ccc2n1)OC[C@H](CN1CCCN(c2ccc4cc(C#N)ccc4n2)CC1)O3` [Example 34, 2-(4-{[(2S)-8-Methyl-2,3-dihydro[1,4]dioxino[2,3-f]quinolin-2-yl]methyl}-1,4-diazepan-1-yl)quinoline-6-carbonitrile], the melting point fell in the range of 80 to 85 °C. The Ki in data set [1] amounted to 2.04 nM. Further, the inhibitory constant (Ki) in data set [2] came to 1.09 nM.

For the origin of these results see patent publication US7153849B2, “Antidepressant arylpiperazine derivatives of hetrocycle-fused benzodioxans” (Wyeth, priority 2002, dated 2006).
